{"source": "patent US9034929B2", "about": "“Aminoalcohol and biocide compositions for aqueous based systems” (ANGUS Chemical Company, priority 2007, dated 2015)", "key": {"[1]": {"system": "fungi of a mixed bacterial/fungal inoculum isolated from spoiled metalworking fluids", "assay": "ASTM Practice E 2275-03 microbial challenge test of diluted metalworking fluids, fungal counts", "assay_type": "cell-based", "description": "(§1) This compound was formulated at 8% by weight into a generic semi-synthetic metalworking fluid concentrate as described in Table 1. Identical formulations were prepared except substituting conventional amino alcohol compounds for 3A4O. The conventional amino alcohols were 2-amino-2-methyl-1-propanol (AMP) and n-butylethanolamine (BEA). An identical set of fluid concentrates was prepared including 1.5% of a 77% aqueous solution of 1,3,5-tris(2-hydroxyethyl)-s-triazine preservative, allowing us to evaluate fluids with and without preservative. The fluid concentrates were diluted at a rate of 20 parts Chicago tap water to 1 part fluid concentrate (by weight); the active amino alcohol concentration at dilution was therefore approximately 0.4% and the active preservative dosage (in the preserved set) was approximately 0.058%. These fluids were subjected to microbial challenge testing by ASTM Practice E 2275-03. In this method fluids are inoculated initially and then weekly with a mixed bacterial/fungal inoculum isolated from spoiled metalworking fluids. The bacterial and fungal counts are measured weekly using a serial dilution plate count method, and reported as colony forming units per milliliter (CFU/mL). The lower the CFU/mL the better the microbial control, and the longer the predicted service life of the fluid. The microbial results are described in FIGS. 1 & 2 (unpreserved) and FIGS. 3 & 4 (preserved with triazine).\n(§2) This material was formulated into the same metalworking fluid concentrate described in Example A, at an 8% concentration. Identical fluids were prepared using 8% 2-amino-2-methyl-1-propanol (AMP) and 8% dicyclohexylamine (DCHA). The preservative benzisothiazolinone (BIOBAN BIT 20 DPG from Dow Biocides) was added to each fluid concentrate at 1.2%, giving an active concentration of 0.24% in the fluid concentrates and 0.012% in the use diluted fluids. The diluted fluids were subjected to the same microbial testing protocol described in Example A, and the results are described in FIGS. 5 & 6.\nIn order to understand the influence of use level of the amino alcohols of the invention, we prepared similar semi-synthetic fluid concentrates as described previously but using 4% amino alcohol to give 2000 ppm at use dilution; the difference in the formulation was made up with water. The fluid concentrates were preserved with the same level of triazine-77% described previously. These fluids were diluted and subjected to the same bacterial/fungal challenge tests described in Examples A and B; the data are found in FIGS. 8 & 9. […]"}, "[2]": {"system": "bacteria of a mixed bacterial/fungal inoculum isolated from spoiled metalworking fluids", "assay": "ASTM Practice E 2275-03 microbial challenge test of diluted metalworking fluids, bacterial counts", "assay_type": "cell-based", "details": "for bacterial growth / resistance to bacterial attack: 8% amino alcohol fluid with benzisothiazolinone (BIT), 0.012% active in diluted fluid, FIG. 5", "description": "as §1, §2\nIn order to understand the influence of use level of the amino alcohols of the invention, we prepared similar semi-synthetic fluid concentrates as described previously but using 4% amino alcohol to give 2000 ppm at use dilution; the difference in the formulation was made up with water. The fluid concentrates were preserved with the same level of triazine-77% described previously. These fluids were diluted and subjected to the same bacterial/fungal challenge tests described in Examples A and B; the data are found in FIGS. 8 & 9.\nFIGS. 10-17 provide additional comparisons between 3-amino-4-octanol (3A4O), an aminoalcohol of the invention, and the non-invention aminoalcohol compounds 2-amino-2-methyl-1-propanol (AMP) and n-butylethanolamine (BEA), in conjunction with various biocides. In particular, FIGS. 10 and 11 bacterial and fungal efficacy comparisons of the aminoalcohols with BIOBAN P-1487 (a combination of 4-(2-nitrobutyl)-morpholine with 4,4′-(2-ethyl-2-nitrotrimethylene)dimorpholine). This biocide was added to give 750 ppm in the diluted fluid. The amine dosage was adjusted to give 4000 ppm at dilution. FIGS. 12 and 13 show bacterial and fungal efficacies of the aminoalcohols in the presence of a triazine/IPBC biocide blend. Triazine-78% was added at 750 ppm based on diluted fluid and iodopropynylbutylcarbamate (IPBC) added at 300 ppm active at dilution. The amine dosage was adjusted to give 3000 ppm at dilution. FIGS. 14 and 15 show bacterial and fungal efficacy of the compounds with Benzisothiazolinone (BIT). BIT was added at 120 ppm active based on diluted fluid and iodopropynylbutylcarbamate (IPBC) added at 300 ppm active at dilution. The amine dosage was adjusted to give 3000 ppm at dilution. FIGS. 16 and 17 show bacterial and fungal efficacy of the aminoalcohols with a chloromethylisothiazolinone/methylisothiazolinone (CMIT/MIT) blend. […]"}, "[3]": {"system": "fungi of a mixed bacterial/fungal inoculum isolated from spoiled metalworking fluids", "details": "at the dosage used (about 0.058% active at dilution); cited from earlier work"}, "pseudomonas aeroginosa": {"system": "pseudomonas aeroginosa", "details": "stated as known; cited from earlier work"}, "[4]": {"system": "mycobacterium immunogenum (ATTCC strain 700505)", "assay": "ASTM microbial challenge test with mycobacterial inoculum", "assay_type": "cell-based", "details": "8% amino alcohol fluid with 1.5% triazine preservative (77% active) in concentrate; FIG. 7"}}, "data": [{"compound": "CCCCC(O)C(N)CC", "note": "(stereo not shown) [3A4O, 3-amino-4-octanol]", "values": [{"measurement": "fungal growth (plate count, CFU/mL)", "setting": "[1]; 8% amino alcohol fluid preserved with triazine (about 0.058% active at dilution), FIG. 4", "value": "unexpected reduction in growth rate over the full course of the test"}, {"measurement": "enhancement of biocide efficacy against fungi", "setting": "[1]; amine 3000-4000 ppm at dilution with BIOBAN P-1487, triazine/IPBC, BIT or CMIT/MIT, FIGS. 11, 13, 15, 17", "value": "greater enhancement against fungi"}, {"measurement": "bacterial growth (plate count, CFU/mL)", "setting": "[2]; 8% amino alcohol fluid preserved with triazine (about 0.058% active at dilution), FIG. 3", "value": "unexpected reduction in growth rate over the full course of the test"}, {"measurement": "enhancement of biocide efficacy against bacteria", "setting": "[2]; amine 3000-4000 ppm at dilution with BIOBAN P-1487, triazine/IPBC, BIT or CMIT/MIT, FIGS. 10, 12, 14, 16", "value": "increased enhancement of biocide efficacy"}]}, {"compound": "OCCN1CN(CCO)CN(CCO)C1", "note": "[triazine preservative, 1,3,5-tris(2-hydroxyethyl)-s-triazine]", "values": [{"measurement": "efficacy of the preservative alone against fungi", "setting": "[3]", "value": "not effective against fungi"}]}, {"compound": "O=c1[nH]sc2ccccc12", "note": "[BIT, benzisothiazolinone]", "values": [{"measurement": "efficacy against pseudomonas aeroginosa", "setting": "pseudomonas aeroginosa", "value": "not to be effective"}]}, {"compound": "CCCCC(O)C(C)N", "note": "(stereo not shown) [2A3H, 2-amino-3-heptanol]", "values": [{"measurement": "fungal growth / resistance to fungal attack", "setting": "[1]; 8% amino alcohol fluid with benzisothiazolinone (BIT), 0.012% active in diluted fluid, FIG. 6", "value": "resists attack better than that with AMP, and is comparable in resistance to the fluid with DCHA"}, {"measurement": "fungal growth (plate count, CFU/mL)", "setting": "[1]; unpreserved semi-synthetic MWF, 8% amino alcohol in concentrate (about 0.4% at dilution), weekly inoculation, FIG. 2", "value": "does not significantly inhibit bacterial or fungal growth"}, {"measurement": "bacterial growth / resistance to bacterial attack", "setting": "[2]", "value": "more resistant to bacterial attack than the others"}, {"measurement": "bacterial growth (plate count, CFU/mL)", "setting": "[2]; unpreserved semi-synthetic MWF, 8% amino alcohol in concentrate (about 0.4% at dilution), weekly inoculation, FIG. 1", "value": "does not significantly inhibit bacterial or fungal growth"}]}, {"compound": "C1CCC(NC2CCCCC2)CC1", "note": "[DCHA, dicyclohexylamine, reference compound]", "values": [{"measurement": "bacterial growth / resistance to bacterial attack", "setting": "[2]", "value": "the opposite is true"}]}, {"compound": "CC(C)(N)CO", "note": "[AMP, 2-amino-2-methyl-1-propanol, reference compound]", "values": [{"measurement": "bacterial growth / resistance to bacterial attack", "setting": "[2]", "value": "relatively poor performance against bacteria"}, {"measurement": "mycobacterial growth / resistance", "setting": "[4]", "value": "virtually no inhibition of activity"}]}]}
